Like-named read-outs stand apart in the source and are kept apart here.
Key:
[1] = cited from earlier work
[2] = molecular target: T1, MAK (Homo sapiens, UniProt P20794); experiment: Reaction Biology radiometric filter binding kinase assay (10-point IC50 converted to Ki); type: biochemical; settings: ATP near Km; Ki calculated from 10-point IC50
T1 construct: purchased Reaction Biology Corp (contract assay)
T1 sequence (P20794 1-623): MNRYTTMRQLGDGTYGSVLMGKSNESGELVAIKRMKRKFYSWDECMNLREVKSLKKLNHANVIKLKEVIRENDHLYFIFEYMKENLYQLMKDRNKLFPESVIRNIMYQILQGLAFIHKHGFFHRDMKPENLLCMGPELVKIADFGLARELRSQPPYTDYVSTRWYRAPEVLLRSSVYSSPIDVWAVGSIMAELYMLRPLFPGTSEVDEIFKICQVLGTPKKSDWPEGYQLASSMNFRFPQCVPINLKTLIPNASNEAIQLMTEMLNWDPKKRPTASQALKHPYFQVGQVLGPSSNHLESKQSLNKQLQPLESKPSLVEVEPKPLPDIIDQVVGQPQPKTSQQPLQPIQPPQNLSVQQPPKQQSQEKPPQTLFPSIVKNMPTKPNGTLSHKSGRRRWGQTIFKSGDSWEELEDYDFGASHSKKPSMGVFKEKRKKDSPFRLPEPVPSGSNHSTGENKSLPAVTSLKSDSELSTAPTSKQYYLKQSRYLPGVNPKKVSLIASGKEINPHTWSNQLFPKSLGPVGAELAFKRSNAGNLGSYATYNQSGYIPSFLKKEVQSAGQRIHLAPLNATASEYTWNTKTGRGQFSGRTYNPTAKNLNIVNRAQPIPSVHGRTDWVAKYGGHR
Protocol: (§1) Ki values for each target were calculated and compared for the two drugs (Fig. 1b–d).
(§2) The ATP concentration was near the Km values for the respective kinases. For each kinase, an IC50 value was calculated from a 10-point concentration curve of the test article and converted to Ki values.

[3] = molecular target: T2, ICK (Homo sapiens, UniProt Q9UPZ9); experiment: as above; type: biochemical; settings: ATP near Km; Ki calculated from 10-point IC50
T2 construct: purchased Reaction Biology Corp (contract assay)
T2 sequence (Q9UPZ9 1-632): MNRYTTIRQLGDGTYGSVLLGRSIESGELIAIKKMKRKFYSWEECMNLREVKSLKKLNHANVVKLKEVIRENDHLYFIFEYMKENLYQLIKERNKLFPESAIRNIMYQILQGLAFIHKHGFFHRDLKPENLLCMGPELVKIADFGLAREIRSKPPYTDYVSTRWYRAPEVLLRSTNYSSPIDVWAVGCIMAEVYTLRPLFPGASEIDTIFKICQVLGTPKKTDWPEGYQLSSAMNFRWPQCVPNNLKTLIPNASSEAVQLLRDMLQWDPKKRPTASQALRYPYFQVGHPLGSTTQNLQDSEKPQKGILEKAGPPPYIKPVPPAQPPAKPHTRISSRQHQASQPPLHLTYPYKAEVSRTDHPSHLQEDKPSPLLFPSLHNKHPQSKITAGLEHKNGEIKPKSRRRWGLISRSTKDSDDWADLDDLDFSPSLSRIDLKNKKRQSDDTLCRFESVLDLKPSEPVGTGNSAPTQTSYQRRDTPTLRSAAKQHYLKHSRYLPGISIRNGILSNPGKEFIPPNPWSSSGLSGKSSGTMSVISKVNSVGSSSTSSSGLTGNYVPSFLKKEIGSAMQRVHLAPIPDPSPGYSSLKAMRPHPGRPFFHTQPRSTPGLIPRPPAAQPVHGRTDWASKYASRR
Protocol: as §1, §2

[4] = tested on: BCL-xL in OCI-LY10 cells; experiment: Western blot for BCL-xL in ABC cell lines; type: cell-based; settings: voruciclib 5 µM, venetoclax 50 nM or combination, 24 hours
Text: Error bars represent SEM.
ECL chemiluminescent substrate (Pierce) and autoradiographic film (ThermoFisher) were used for detection of signals. MCL-1 and BCL-xL signals were quantified using Image Studio Lite (LICOR Biosciences) using β actin for normalization. Student’s t-test was used to compare mean signal intensities across different conditions. The level of significance was set at 0.05.

[5] = tested on: relapsed or refractory non-Hodgkin lymphoma (NHL); design: method as in PMID 28095146; settings: relapsed or refractory NHL patients, venetoclax alone; cited from earlier work
[6] = Tolerability and body weight in systemic efficacy studies
Protocol: For systemic drug efficacy studies, mice were enrolled when tumors reached an average volume of 150–200 mm^3. Assignment to treatment groups was carried out via stratified randomization. Tumor dimensions were measured twice a week using digital calipers along with recording of body weight. Tumor volume was calculated using formula V = π/6 (length x width x height) in mm^3 [46]. Animals were removed from the study when either any one of the three measured dimensions of the tumor exceeded 2 cm, volume exceeded 2000 mm^3, ulceration was observed or if body weight loss greater than 20% was recorded. […] Control cohorts were administered vehicles of both drugs, and each single agent cohort was administered the vehicle of the other drug.

[7] = Modelled plasma drug levels from Phase 1 pharmacokinetic data; settings: humans, 250 mg/day oral, modelled from Phase 1 PK data
Protocol: (Fig. 2a). Predicted mean plasma levels, once steady state is achieved after about 5 oral doses, fluctuate between 2 and 3.5 μM with an average near 3 μM for our model parameters. […] This was accompanied by apoptosis as represented by cleaved PARP induction starting at 1-2 μM in all models (Figs 2c, S2 and S5). Complete MCL-1 repression was typically observed at 3 μM exposures. […] Maximum, average and minimum plasma levels are shown by the red, green and blue lines respectively. The parameter set derived from the PK data after 13/15 days dosing was used for the 15-day simulation for the steady state levels attained after repeat dosing. (b) Western blot analyses for RNA POL II ([…]), MCL-1, cPARP using protein lysates isolated from SU-DHL-4 cells. β actin was used as the loading control. […] Tumors were resected 4 hours after the final dose and processed for both Western blot and IHC analyses. β actin was used as loading control for the Western blot where each lane represents an individual tumor (Tumor (T) #1-9). MCL-1 signals, normalized to β actin, were quantified and the average MCL-1 signal for each condition relative to vehicle is shown in the corresponding bar graph. Error bars represent standard error of the mean (SEM). […] DAPI was used as counterstain for IHC. Representative images are shown. Scale bar: 1000 μm.

[8] = design: method as in earlier work; settings: 350 mg/day, one patient out of 24; cited from earlier work
[9] = tested on: RNA POL II (pSer2); experiment: Western blot for RNA POL II (pSer2) in SU-DHL-4 cells; type: cell-based
[10] = tested on: MCL-1 in OCI-LY10 xenograft; experiment: Western blot and IHC for MCL-1 in tumors after oral dosing; type: in vivo, mice; settings: 100 mpk or 200 mpk oral daily for 5 days, tumors resected 4 hours after final dose
Protocol: Maximum, average and minimum plasma levels are shown by the red, green and blue lines respectively. The parameter set derived from the PK data after 13/15 days dosing was used for the 15-day simulation for the steady state levels attained after repeat dosing. (b) Western blot analyses for RNA POL II (pSer2), MCL-1, cPARP using protein lysates isolated from SU-DHL-4 cells. β actin was used as the loading control. […] Tumors were resected 4 hours after the final dose and processed for both Western blot and IHC analyses. β actin was used as loading control for the Western blot where each lane represents an individual tumor (Tumor (T) #1-9). MCL-1 signals, normalized to β actin, were quantified and the average MCL-1 signal for each condition relative to vehicle is shown in the corresponding bar graph. Error bars represent standard error of the mean (SEM). Asterisks (*) denote p value < 0.05 calculated using the Student’s t-test for comparison of vehicle vs treatment. DAPI was used as counterstain for IHC. Representative images are shown. Scale bar: 1000 µm. […]

[11] = molecular target: T3, CDK1/cyc B (Homo sapiens, UniProt P06493); experiment: Reaction Biology radiometric filter binding kinase assay (10-point IC50 converted to Ki); type: biochemical; settings: ATP near Km; Ki calculated from 10-point IC50
T3 construct: purchased Reaction Biology Corp (contract assay)
T3 sequence (P06493 whole entry): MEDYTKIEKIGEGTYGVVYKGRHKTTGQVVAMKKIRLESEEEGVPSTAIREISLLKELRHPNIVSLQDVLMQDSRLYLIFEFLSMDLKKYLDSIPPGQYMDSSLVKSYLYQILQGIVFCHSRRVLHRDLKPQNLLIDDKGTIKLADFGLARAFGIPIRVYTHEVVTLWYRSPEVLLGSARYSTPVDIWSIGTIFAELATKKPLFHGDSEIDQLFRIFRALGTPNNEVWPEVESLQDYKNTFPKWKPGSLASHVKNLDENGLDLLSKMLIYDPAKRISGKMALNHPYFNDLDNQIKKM
T3 sequence (P14635 whole entry partner): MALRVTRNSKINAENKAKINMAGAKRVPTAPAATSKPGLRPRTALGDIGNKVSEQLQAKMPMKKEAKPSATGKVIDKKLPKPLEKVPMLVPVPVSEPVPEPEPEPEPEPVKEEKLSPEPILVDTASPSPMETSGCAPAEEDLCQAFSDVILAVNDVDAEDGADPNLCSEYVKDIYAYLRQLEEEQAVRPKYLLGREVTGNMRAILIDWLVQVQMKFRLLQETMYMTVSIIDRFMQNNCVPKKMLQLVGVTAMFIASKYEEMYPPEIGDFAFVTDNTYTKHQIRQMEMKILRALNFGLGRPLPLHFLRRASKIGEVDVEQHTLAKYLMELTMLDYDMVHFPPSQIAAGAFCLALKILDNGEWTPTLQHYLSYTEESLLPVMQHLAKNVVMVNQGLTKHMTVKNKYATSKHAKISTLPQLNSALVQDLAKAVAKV
Protocol: as §1, §2

[12] = molecular target: T4, CDK6/cyc D1 (Homo sapiens, UniProt Q00534); experiment: as above; type: biochemical; settings: ATP near Km; Ki calculated from 10-point IC50
T4 construct: purchased Reaction Biology Corp (contract assay)
T4 sequence (Q00534 whole entry): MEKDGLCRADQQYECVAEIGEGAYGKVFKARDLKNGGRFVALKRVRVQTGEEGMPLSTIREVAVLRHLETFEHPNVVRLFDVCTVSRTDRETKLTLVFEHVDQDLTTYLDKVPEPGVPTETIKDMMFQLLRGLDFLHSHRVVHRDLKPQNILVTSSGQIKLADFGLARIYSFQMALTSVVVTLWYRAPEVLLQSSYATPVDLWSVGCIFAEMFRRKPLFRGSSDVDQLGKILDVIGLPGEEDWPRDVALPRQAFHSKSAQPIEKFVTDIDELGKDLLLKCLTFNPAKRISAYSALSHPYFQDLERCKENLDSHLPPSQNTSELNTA
T4 sequence (P24385 whole entry partner): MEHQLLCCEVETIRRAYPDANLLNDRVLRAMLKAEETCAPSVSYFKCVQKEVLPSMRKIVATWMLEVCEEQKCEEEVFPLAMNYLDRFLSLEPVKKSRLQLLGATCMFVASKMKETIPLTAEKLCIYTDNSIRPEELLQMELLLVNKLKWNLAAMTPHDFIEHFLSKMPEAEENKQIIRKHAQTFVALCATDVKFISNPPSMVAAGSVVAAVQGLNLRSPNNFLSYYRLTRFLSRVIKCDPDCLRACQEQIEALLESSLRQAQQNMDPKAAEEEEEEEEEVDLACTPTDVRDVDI
Protocol: as §1, §2

[13] = molecular target: T5, CDK1/cyc A (Homo sapiens, UniProt P06493); experiment: as above; type: biochemical; settings: ATP near Km; Ki calculated from 10-point IC50
T5 construct: purchased Reaction Biology Corp (contract assay)
T5 sequence (P06493 whole entry): as the sequence (P06493 whole entry) above
T5 sequence (P20248 whole entry partner): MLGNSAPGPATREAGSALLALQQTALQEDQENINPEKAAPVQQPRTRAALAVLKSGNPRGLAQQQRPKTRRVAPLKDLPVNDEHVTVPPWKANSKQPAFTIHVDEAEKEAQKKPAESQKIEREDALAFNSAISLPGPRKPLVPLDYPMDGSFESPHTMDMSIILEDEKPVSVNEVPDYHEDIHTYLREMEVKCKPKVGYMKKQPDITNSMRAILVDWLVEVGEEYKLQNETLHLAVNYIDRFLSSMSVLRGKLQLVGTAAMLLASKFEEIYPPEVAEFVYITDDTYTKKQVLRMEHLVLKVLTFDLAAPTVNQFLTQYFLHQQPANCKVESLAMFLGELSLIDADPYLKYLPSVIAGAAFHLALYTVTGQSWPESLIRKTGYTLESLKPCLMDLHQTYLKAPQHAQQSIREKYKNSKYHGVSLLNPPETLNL
Protocol: as §1, §2

[14] = molecular target: T6, CDK4/cyc D1 (Homo sapiens, UniProt P11802); experiment: as above; type: biochemical; settings: ATP near Km; Ki calculated from 10-point IC50
T6 construct: purchased Reaction Biology Corp (contract assay)
T6 sequence (P11802 whole entry): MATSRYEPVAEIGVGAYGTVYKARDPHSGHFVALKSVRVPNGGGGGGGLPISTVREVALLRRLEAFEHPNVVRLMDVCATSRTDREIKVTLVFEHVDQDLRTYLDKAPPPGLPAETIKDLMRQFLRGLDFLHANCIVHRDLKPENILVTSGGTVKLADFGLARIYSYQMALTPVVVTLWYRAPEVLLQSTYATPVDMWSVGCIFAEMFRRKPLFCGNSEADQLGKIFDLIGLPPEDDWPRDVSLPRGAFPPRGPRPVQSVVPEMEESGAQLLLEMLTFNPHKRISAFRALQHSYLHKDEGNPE
T6 sequence (P24385 whole entry partner): as the sequence (P24385 whole entry partner) above
Protocol: as §1, §2

[15] = tested on: MCL-1 and cPARP in U2932, RIVA, OCI-LY10, NU-DHL-1, SU-DHL-4 and SU-DHL-6 cells; experiment: Western blot for MCL-1 and cPARP in DLBCL cell lines; type: cell-based; settings: 0.5 µM–5 µM for 6 hours
Protocol: Maximum, average and minimum plasma levels are shown by the red, green and blue lines respectively. The parameter set derived from the PK data after 13/15 days dosing was used for the 15-day simulation for the steady state levels attained after repeat dosing. (b) Western blot analyses for RNA POL II (pSer2), MCL-1, cPARP using protein lysates isolated from SU-DHL-4 cells. β actin was used as the loading control. […] Tumors were resected 4 hours after the final dose and processed for both Western blot and IHC analyses. β actin was used as loading control for the Western blot where each lane represents an individual tumor (Tumor (T) #1-9). MCL-1 signals, normalized to β actin, were quantified and the average MCL-1 signal for each condition relative to vehicle is shown in the corresponding bar graph. Error bars represent standard error of the mean (SEM). Asterisks (*) denote p value < 0.05 calculated using the Student’s t-test for comparison of vehicle vs treatment. DAPI was used as counterstain for IHC. Representative images are shown. Scale bar: 1000 µm.
RI-1, also known as RIVA, U2932, NU-DHL-1 cell lines were purchased from DSMZ. SU-DHL-4, SU-DHL-6 were purchased from ATCC. All lines were cultured in RPMI 1640 with L-Glutamine (ThermoFisher),10% fetal bovine serum (Thermofisher), at 37 degrees Celsius, 5% CO2. […]

[16] = tested on: BCL-xL in OCI-LY10 xenograft; experiment: Western blot for BCL-xL in tumor lysates after oral dosing; type: in vivo, mice; settings: 100 mpk or 200 mpk oral gavage for 5 days, compared to vehicle
Text: Each lane represents an individual tumor (Tumor (T) #1–9). BCL-xl signals, normalized to β actin, were quantified and the average BCL-xl signal for each condition relative to vehicle is shown in the corresponding bar graph. Error bars represent SEM. Asterisks (*) denote p value < 0.05 calculated using the Student’s t-test for comparison of vehicle vs treatment.
20 micrograms of protein lysate from each condition were subjected to SDS-PAGE and transferred to 0.45 micron PVDF membranes (ThermoFisher) using manufacturer’s protocol, blocked for one hour in 5% milk at room temperature, probed with primary antibodies for cPARP (rabbit CST 5625), MCL-1 (rabbit CST 39224) or BCL-xL (rabbit CST 2764), followed by corresponding HRP-conjugated secondary antibodies (Jackson ImmunoResearch). β actin (mouse CST 12262) was used as loading control. ECL chemiluminescent substrate (Pierce) and autoradiographic film (ThermoFisher) were used for detection of signals. MCL-1 and BCL-xL signals were quantified using Image Studio Lite (LICOR Biosciences) using β actin for normalization. Student’s t-test was used to compare mean signal intensities across different conditions. The level of significance was set at 0.05.

In the case of `CN1CC[C@H](c2c(O)cc(O)c3c(=O)cc(-c4ccccc4Cl)oc23)[C@H](O)C1` [Flavopiridol, reference compound], the oral bioavailability [1] is given as “neither of these two agents are orally bioavailable”, the Ki [2] is given as 1.08 nM and the Ki [3] is given as 11.8 nM.
For `CC1(C)CCC(CN2CCN(c3ccc(C(=O)NS(=O)(=O)c4ccc(NCC5CCOCC5)c([N+](=O)[O-])c4)c(Oc4cnc5[nH]ccc5c4)c3)CC2)=C(c2ccc(Cl)cc2)C1` [Venetoclax, reference compound], the “BCL-xL levels in cell lysates” value [4] is listed as “elevated levels of BCL-xL”, the median progression-free survival [5] is listed as 1 month and the overall response rate [5] is listed as 18%. The “tolerability, toxicity and body weight changes” value ([6]; xenografted mice (U2932, RIVA, OCI-LY10, NU-DHL-1, SU-DHL-4), oral regimens, first two cycles of treatment) was “not induce any significant body weight changes”.
In the case of `CN1CC[C@@H](c2c(O)cc(O)c3c(=O)cc(-c4ccc(C(F)(F)F)cc4Cl)oc23)[C@@H]1CO` [Voruciclib], the “Predicted mean plasma levels at steady state (average)” value [7] is given as ~3 µM, the oral bioavailability ([1]; has been shown, reference not given) is given as “orally bioavailable” and the “patients with dose-limiting diarrhea” value [8] is given as 4%. The “BCL-xL levels in cell lysates” value [4] was “elevated levels of BCL-xL”, the “phosphorylation of RNA POL II” value [9] was “inhibition of phosphorylation of RNA POL II” and the “MCL-1 protein expression in tumors” value [10] was “decreased in a dose-dependent manner”. It also gave a Ki [11] of 5.4 nM, a Ki [2] of 259 nM and a Ki [12] of 2.92 nM. For the same molecule, the Ki [13] was 9.1 nM, the Ki [3] was 481 nM and the Ki [14] was 3.96 nM. The “tolerability, toxicity and body weight changes” value ([6]; mouse, in vivo, po) was “not induce any significant body weight changes”, the “exposure giving complete MCL-1 repression” value ([15]; 6 DLBCL models) was ~3 µM and the “concentration at which cleaved PARP induction (apoptosis) starts” value ([15]; all 6 DLBCL models) was 1 to 2 µM. For the same molecule, the “BCL-xL levels in tumor lysates” value [16] was “elevated levels of BCL-xL”.
For `CCc1cnn2c(NCc3ccc[n+]([O-])c3)cc(N3CCCC[C@H]3CCO)nc12` [dinaciclib], the oral bioavailability [1] is given as “neither of these two agents are orally bioavailable”.

From publication PMC5740070 (Scientific Reports, 2017)
